{
  "source": "patent US12576129B2",
  "about": "“Anthelmintic compositions and methods” (priority 2016, dated 2026)",
  "key": {"BaCC [1]": {"system": "BaCC", "test": "Minimum inhibitory concentration of terpenes against BaCC (broth microdilution)", "type": "cell-based", "settings": "Bacillus thuringiensis; 24 h at 30° C. in LB; no absorbance increase; read-out: MIC μg/mL (100)", "procedure": "Three terpenes were tested against BaCC including: carvacrol, geraniol and farnesol, by using the broth microdilution method as described in Agaisse and Lereclus, J. Bacteriol. 176, 4734-4741, 1994 and Agaisse and Lereclus, Mol. Microbiol. 13, 97-107, 1994 with some modifications. Briefly, BaCC from a single colony was grown in 5 mL of LB medium supplemented with 10 μg/mL erythromycin+200 μg/mL kanamycin overnight (O.D. (600) of 4.8, 2.3×10^7 CFU/mL). Terpene solutions were prepared at 1 mg/mL in LB. One hundred μL of two-fold serial dilutions of each terpene in LB were prepared in 96-well microtiter plates over the range of 1000 to 3.9 μg/mL in triplicate. LB without terpenes was used as a negative control. BaCC culture was diluted 100 times, and 100 μL of BaCC culture was added to the wells. Absorbance at 600 nm was recorded before and after the incubation to monitor bacterial growth. The MICs were determined after incubation for 24 h at 30° C. without shaking."}, "[2]": {"settings": "cited from earlier work"}, "BaCC [3]": {"system": "BaCC", "test": "Carvacrol wash protocols: alive bacteria (CFU) after treatment", "type": "cell-based, Bacillus thuringiensis", "procedure": "To reduce carvacrol residue in the final product, we tested different strategies. In order to reduce the carvacrol residue in the final IBaCC product, first the total amount of carvacrol was reduced by concentrating the cultures before carvacrol treatment. The cultures were centrifuged, and the pellets were re-suspended in sterile distilled water in half or one fourth of the original culture volume. Then, carvacrol was added at 1 mg/mL concentration. Second, carvacrol was removed from the culture by increasing the solubility of carvacrol in the water phase. […] As such, 5% and 15% of ethanol water was used in the washing steps following the IBaCC incubation with carvacrol. Another strategy employed was to increase the volume of distilled water during the washing steps to remove more carvacrol per wash step (for instance, only 25 mg carvacrol can be solubilized with 20 mL of water while 50 mg carvacrol can be solubilized with 40 mL of water.) Lastly, since the temperature affects carvacrol solubility, the incubation and washing steps were carried out at room temperature instead of 4° C. The positive control sample was treated with 1 mg/mL carvacrol without concentrating the culture prior to carvacrol treatment, incubated at 4° C., washed with 1M NaCl once and distilled water twice using 1:1 culture to wash volume ratio. No terpene control sample received water instead of carvacrol, but the incubation and washing steps were carried out in the same manner as the positive control. BaCC culture was grown in 3× LB for 48 hours, and 40 mL of BaCC culture was used for each condition. After washes, the culture was concentrated 20 times. Samples were plated for CFU/mL analysis as described earlier, and carvacrol residue was assessed by HPLC as follows."}, "E. coli": {"system": "E. coli", "test": "CFU of E. coli after carvacrol treatment", "type": "cell-based, Escherichia coli", "settings": "1 mg/mL carvacrol for 15 minutes", "procedure": "Bioactivity of carvacrol-treated Crystal-E. coli on C. elegans. Escherichia coli cells expressing nematicidal Crystal protein or empty vector were treated for 15 minutes with 1 mg/mL carvacrol. The cells were washed in sterile water 3 times. CFUs were determined for untreated and carvacrol-treated cells by serial dilution plating on LB plates. In addition, C. elegans nematode L4 hermaphrodites were fed overnight 1.8 ×10^7 cells/mL of E. coli untreated or carvacrol-treated, Crystal expressing and empty vector (4 conditions) at 25° C. for 16 hr."}, "BaCC [4]": {"system": "BaCC", "test": "Time to kill: CFU/mL of BaCC after terpene treatment", "type": "cell-based, Bacillus thuringiensis", "procedure": "In order to determine which terpene kills BaCC in the shortest amount of time, we incubated 5 mL of BaCC culture with three terpenes at 1 mg/mL at 4° C. for 1, 2, 3 and 5 hours. No terpene control and no bacteria controls were carried out simultaneously. After incubation with terpenes, samples were centrifuged and the pellets were washed with 5 mL of 1M NaCl once and 5 mL of sterile distilled water twice in order to remove the terpenes. The pellets were re-suspended in the original volume and plated on LB agar with kanamycin and erythromycin. Plates were incubated overnight at 30° C.; the next day, the number of colonies on the plates were enumerated and colony forming units (CFU)/mL calculated.\nTo assess terpene killing at shorter time points, BaCC culture was grown in 3× LB for 48 h as described above and 60 ml of cultures were aliquoted in sterile tubes. Carvacrol and geraniol were added to the final concentration of 1 mg/mL, and the tubes were placed on a rotator at 4° C. for 15 minutes. The negative control was prepared using sterile water instead of terpenes. At the end of the incubation period, the tubes were centrifuged at 2000× g for 10 minutes and pellets washed with 60 ml of 1 M NaCl once and washed with 60 mL of sterile distilled water twice. Pellets were re-suspended in 1.2 mL of sterile distilled water to concentrate the culture 50 times. Concentrated terpene treated and control samples were plated on LB agar plates containing kanamycin and erythromycin and incubated overnight at 30° C. The number of colonies were counted the next day and CFU/mL calculated for each time point."}, "[5]": {"settings": "Concentrated 2X = 20 ml before adding carvacrol (1 mg/mL)"}, "[6]": {"settings": "Concentrated 4X = 10 ml before adding carvacrol (1 mg/mL)"}, "[7]": {"settings": "Control: 4C, no concentration, 1:1 culture to wash volume (1 mg/mL carvacrol)"}, "[8]": {"settings": "Incubated and washed at room temperature"}, "[9]": {"settings": "Wash volume increased 2X (e.g., 40 ml wash for 20 ml culture)"}, "[10]": {"settings": "Washes were done with 5% ethanol in water"}, "[11]": {"settings": "Washes were done with 15% ethanol in water"}},
  "note": "Like-named read-outs stand apart in the source and are kept apart here.",
  "data": [
    {"compound": "Cc1ccc(C(C)C)cc1O", "note": "[Carvacrol, carvacrol]", "values": [
      {"measurement": "MIC", "setting": "BaCC [1]", "result": 125, "unit": "µg/mL"},
      {"measurement": "log P octanol/water", "setting": "[2]", "result": 3.64},
      {"measurement": "amount that can be solubilized", "setting": "[2]; with 20 mL of water", "result": 25, "unit": "mg"},
      {"measurement": "amount that can be solubilized", "setting": "[2]; with 40 mL of water", "result": 50, "unit": "mg"},
      {"measurement": "Number of alive bacteria in 1 ml 20X concentrate", "setting": "BaCC [3]; [5]", "result": 0},
      {"measurement": "Number of alive bacteria in 1 ml culture", "setting": "BaCC [3]; [5]", "result": 0},
      {"measurement": "Number of alive bacteria in 1 ml 20X concentrate", "setting": "BaCC [3]; [6]", "result": 0},
      {"measurement": "Number of alive bacteria in 1 ml culture", "setting": "BaCC [3]; [6]", "result": 0},
      {"measurement": "Number of alive bacteria in 1 ml 20X concentrate", "setting": "BaCC [3]; [7]", "result": 0},
      {"measurement": "Number of alive bacteria in 1 ml culture", "setting": "BaCC [3]; [7]", "result": 0},
      {"measurement": "Number of alive bacteria in 1 ml 20X concentrate", "setting": "BaCC [3]; [8]", "result": 0},
      {"measurement": "Number of alive bacteria in 1 ml culture", "setting": "BaCC [3]; [8]", "result": 0},
      {"measurement": "Number of alive bacteria in 1 ml 20X concentrate", "setting": "BaCC [3]; [9]", "result": 140},
      {"measurement": "Number of alive bacteria in 1 ml culture", "setting": "BaCC [3]; [9]", "result": 7},
      {"measurement": "Number of alive bacteria in 1 ml 20X concentrate", "setting": "BaCC [3]; [10]", "result": 0},
      {"measurement": "Number of alive bacteria in 1 ml culture", "setting": "BaCC [3]; [10]", "result": 0},
      {"measurement": "Number of alive bacteria in 1 ml 20X concentrate", "setting": "BaCC [3]; [11]", "result": 160},
      {"measurement": "Number of alive bacteria in 1 ml culture", "setting": "BaCC [3]; [11]", "result": 8},
      {"measurement": "killing of E. coli (CFUs)", "setting": "E. coli", "result": "effectively killed the E. coli"},
      {"measurement": "CFU/ml (1 mg/mL terpene treatment for time indicated)", "setting": "BaCC [4]; 15 min at 4° C., culture concentrated 50 times (50X conc.) before plating", "result": 0, "unit": "CFU/ml"},
      {"measurement": "CFU/ml (1 mg/mL terpene treatment for time indicated)", "setting": "BaCC [4]; 1 h at 4° C.", "result": 0, "unit": "CFU/ml"},
      {"measurement": "CFU/ml (1 mg/mL terpene treatment for time indicated)", "setting": "BaCC [4]; 3 h at 4° C.", "result": 0, "unit": "CFU/ml"},
      {"measurement": "CFU/ml (1 mg/mL terpene treatment for time indicated)", "setting": "BaCC [4]; 5 h at 4° C.", "result": 0, "unit": "CFU/ml"},
      {"measurement": "killing of BaCC (spo0A- cells expressing Cry5B)", "setting": "BaCC [4]; carvacrol treatment", "result": "complete killing of the Bacilli"},
      {"measurement": "comparison of antimicrobial efficiency among the 3 terpenes", "setting": "BaCC [4]; carvacrol, geraniol, farnesol against BaCC", "result": "most efficient, killing the quickest and at the lowest concentration"},
      {"measurement": "CFU/ml (1 mg/mL terpene treatment for time indicated)", "setting": "BaCC [4]; time 0", "result": "2.31 × 10^7 CFU/ml"}
    ]}
  ]
}
